Columns and labels:
[1] = Equilibrium swelling, gel fraction and Mc (Flory-Rehner) of PEG-OND hydrogels; type: physicochemical; conditions: for Mc (apparent molecular weight between elastic crosslinks): calculated with the Flory-Rehner equation from swelling results; for Gel Fraction: mass of dry residue post-swelling/input mass of OND and 4-PEG-SH; for Equilibrium Swelling Ratio: mass post-swelling/mass pre-swelling, deionized water, 4° C., 24 hours, n = 3 gels
Protocol: The swelling of the PEG-OND hydrogels in deionized water was measured at 4° C. to prevent significant fragmentation during the experiment. […] An independent experiment measuring soluble fraction thiol content yielded results complementing those obtained gravimetrically (Table S3, and related discussion below). With the knowledge that small molecules can readily permeate swollen PEG-OND hydrogels (see below), detecting and modifying residual thiols in gels prepared from divalent linkers 7a and 8 by swelling in the presence of a fluorogenic OND derivative was attempted (FIG. 15, and related discussion below).
200 μL gels were prepared in pH 7.4 100 mM phosphate buffered saline containing 7% DMSO with 3.5 wt % 4-PEG-SH and the corresponding bis-, tris-, and tetra-ONDs to provide a 1:1 thiol to electrophile ratio, and allowed to cure for 20 minutes at room temperature. The mass of the gels after curing was recorded (Meq) before suspending in 5.5 mL of water. The hydrogels were stored at 4° C. during swelling to prevent significant degradation of the network during the experiment. The increase in mass of the gels was monitored periodically by decanting and blotting the gel gently with a kimwipe to remove excess water before weighing. After 24 hours swelling, when swelling had stabilized, the mass of the gel was recorded (Meq). The equilibrium mass swelling ratio was then determined using the following relationship:
After weighing equilibrium-swelled gels to determine equilibrium mass swelling ratio, the gels were freeze-dried and the residual mass was weighed (Mres). It is expected that buffer salts present in the sample when it was formed were removed by the multiple changes of swelling solvent (pure water). The mass of the remaining residue was compared to the input mass (Min) of 4-PEG-SH macromer and OND-based linker. The ratio of the residual mass and the input mass provides the fraction of material by mass incorporated into the hydrogel network (gel fraction), as shown in the following equation: […]
The apparent molecular weight between elastically-productive crosslinks (Mc) was determined from equilibrium swelling data, collected as described in section VII.1 and applying a modified form of the Flory-Rehner equation for networks formed under dilute conditions:
[formula] where Mn is the number average molecular weight for the polymeric macromer (10,000 g/mol), v is the specific volume of the polymer ([…] for PEG) V1 is the molar volume of solvent used for swelling ([…] for water), χ is the polymer-interaction parameter (0.43 for PEG-H2O and assumed constant for the described experiments). V2, and V2, are the volume fraction of polymer in the equilibrium swollen gel and the relaxed gel after curing, respectively, and are calculated as follows:
[formula] where qw is the weight swelling ratio after equilibrium swelling, qF is the weight swelling ratio after curing, ρp is the density of the polymer (1.12 g/cm^3 for PEG), ρwater=ρcure solvent is the density of swelling solvent and solvent during gel formation (1.00 g/cm^3 for water). The weight swelling ratios qw and qF are determined from data gathered in equilibrium swelling experiments using the following relationships:
[formula] where ms is the mass of the gel after equilibrium swelling, mc is the mass of the gel after curing, and md is the mass of the dried gel, or input mass of polymer and crosslinkers.
Using the formulae above, masses of hydrogel samples recorded after equilibrium swelling, curing, and drying were applied to estimate the apparent molecular weight between crosslinks, which are summarized in Table 1 of the main text. The experimentally observed Mc values for gels formed using divalent OND linkers was lower than theoretical ideal value Mc,ideal. This can be explained by the fact that the Mc,ideal values calculated for these gels (entries 1-5 of Table S1) are greater than the entanglement molecular weight for polyethylene glycol (˜4,400 g/mol). […]

[2] = Erosion of swollen hydrogels (BODIPY erosion probe, time-lapse photography); type: physicochemical; conditions: poorly controlled BODIPY labeling protocol
Excerpt: Degradation behavior of PEG-OND hydrogels under swelling conditions was investigated by labeling 3% of the 4-PEG-SH thiols with a BODIPY fluorophore via maleimide coupling before gelation. Gels prepared from this material are expected to have slightly lower crosslink densities and to degrade sooner when compared to gels formed without the erosion probe (FIG. 19). However, the probe-labeled macromer allowed convenient monitoring and comparison of erosion behavior under conditions relevant for biological applications. An increase in absorbance (504 nm) of the swelling buffer was observed as pieces containing the labeled PEG-thiol components were detached from the gel by rDA fragmentation (FIG. 2). […] Using combinations of linkers, it was possible to produce hydrogels with release profiles tuned between those of gels prepared from a single linker (FIG. 2C).
The 3.76 wt % solution of BODIPY-labeled 4-PEG-SH prepared above was used to form hydrogels using a method identical to unlabeled gels. Briefly, BODIPY-labeled 4-PEG-SH was combined with DMSO stocks of multivalent ONDs at equimolar concentration of thiol and electrophile. […] The absorbance of the supernatant at 504 nm was measured immediately to obtain a baseline measurement (t=0 hours), and the samples were placed into a 37° C. incubator. The absorbance of the swelling supernatant was monitored periodically by removal of 1 mL of buffer into a cuvette and measuring absorbance of the sample at 504 nm. […] This process was repeated for each sample until gel degradation was complete and the absorbance at 504 nm stabilized (100% dye released). In order to estimate the fraction of dye released from the non-degradable gel formed with bi s-EONB 8, a mock endpoint sample consisting of BODIPY-labeled 4-PEG-SH diluted to 3.5 wt % was prepared, and the absorbance at 504 nm was measured. […] The absorbance values collected over the course of the experiment were divided by the absorbance value measured after gel disintegration to obtain fractional dye release versus time. […]
The time at which the glass bead reached the bottom of the tube was recorded. […]

Compound: COC(=O)C1=C(C(=O)OC)C2(CNC(=O)CCCC(=O)NCC34OC(C(C(=O)OC)=C3C(=O)OC)C3OC34)OC1C1OC12 (stereo not shown) [Linker 8, Tetramethyl 1,1′-((glutaroylbis(azanediyl))bis(methylene))bis(3,8-dioxatricyclo[3.2.1.0^2,4]oct-6-ene-6,7-dicarboxylate)]
- Mc (apparent molecular weight between elastic crosslinks) [1]: 3900 ± 93 g/mol
- Gel Fraction [1]: 0.97 ± 0.01
- Equilibrium Swelling Ratio [1]: 1.60 ± 0.10
- Dye released from gel made with multiply-labeled 4-PEG-SH macromer [2]: up to 50%

Compound: COC(=O)C1=C(C(=O)OC)C2(CNC(=O)CCCC(=O)NCC34C=CC(O3)C(C(=O)OC)=C4C(=O)OC)C=CC1O2 [Linker 7a, Tetramethyl 1,1′-((glutaroylbis(azanediyl))bis(methylene))bis(7-oxabicyclo[2.2.1]hepta-2,5-diene-2,3-dicarboxylate)]
- Mc (apparent molecular weight between elastic crosslinks) [1]: 4080 ± 57 g/mol
- Gel Fraction [1]: 0.91 ± 0.03
- Equilibrium Swelling Ratio [1]: 1.7 ± 0.04

From patent publication US10517952B2, “Nucleophile-triggered degradable materials and methods of making and using the same” (GEORGIA TECH RESEARCH CORPORATION, priority 2014, dated 2019)
